Source: paper PMC10669220, “In Vitro α-Glucosidase and α-Amylase Inhibition, Cytotoxicity and Free Radical Scavenging Profiling of the 6-Halogeno and Mixed 6,8-Dihalogenated 2-Aryl-4-methyl-1,2-dihydroquinazoline 3-Oxides” (Antioxidants, 2023)

Tests used:
[1] = DPPH radical scavenging assay; conditions: mean ± SD; 45 min in the dark; 512 nm
Protocol: The DPPH radical scavenging assay was conducted following the procedure described in our previous study. The test compounds and ascorbic acid at various concentrations (ranging from 0 µM to 50 µM) in DMSO were mixed with a solution of DPPH (0.20 mM) in methanol and incubated in the dark for 45 min. Five absorbance readings were recorded at 512 nm using an Elisa plate reader (Varioskan Flash, ThermoFisher Scientific, Vantaa, Finland). The experiment was carried out in triplicate, and averaged values from the absorbance readings were used to determine the IC50 and standard deviation values in GraphPad prism from nonlinear regression dose–response curves.

[2] = NO free radical scavenging assay (sodium nitroprusside/Griess); conditions: mean ± SD; sodium nitroprusside, Griess reagent, 550 nm
Protocol: The assay was conducted following the method described in our previous study. A mixture of 10 mM sodium nitroprusside (20 µL), phosphate buffer (5 µL) and the test compound (5 µL) were incubated at 25 °C in a 96-well plate for 2.5 h. After incubation, 20 µL of Griess reagent (1.00 g of sulfanilic acid + 0.10 g naphthylethylene diamine dihydrochloride) was added to the previous mixture and allowed to stand for 30 min. […] Each experiment was performed in triplicate, and the average was taken. The average obtained from the absorbance readings was used to calculate the IC50 values in GraphPad prism from nonlinear regression dose–response curves.

[3] = test system: NO generated from nitric oxide synthase (NOS); assay: Inhibitory activity against NO generated from NOS (EnzyChrom kit); format: biochemical; conditions: mean ± SD, 1-50 µM
Protocol: A nitric oxide synthase (NOS) assay was performed following the procedure recommended by the manufacturer as outlined in the screening kit (Catalogue No. EINO-100; EnzyChrom). Various concentrations (1, 5, 10, 25 and 50 µM) of the compounds 3a, 3c, 3f, 3i, 3l, 3n and 3p and the reference standard, ascorbic acid, were prepared. The enzyme solution (12.5 U/mL NOS, 10 µL), assay buffer (25 µL) and test samples (5 µL) were incubated at room temperature for 15 min. After pre-incubation, 10 µL of reaction mix was added and incubated at 37 °C for 60 min. A 200 µL quantity of NO detection reagent was added, the detection reaction was run at 37 °C for 60 min, and absorbance was determined at a wavelength of 540 nm using an Elisa plate reader (Varioskan Flash, ThermoFisher Scientific, Vantaa, Finland). The average of three readings was used to calculate the NOS percentage inhibition using the following formula: % Inhibition=1−ΔOD Test Compd/ΔOD No Inhibitor ×100%
The IC50 values and standard deviation values were determined from nonlinear regression dose–response curve and compared with the results in GraphPad prism.

[4] = molecular target: T1, α-Glucosidase type 1 from baker's yeast (Saccharomyces cerevisiae, UniProt P53341); assay: biochemical; conditions: IC50 α-Glucosidase, mean ± SD, triplicate; tested at 1, 5, 10, 25, 50 µM
T1 construct: purchased Sigma Aldrich (Pty) Ltd. G5003
Protocol: The assay was conducted in triplicate following a method described in our previous study. […] After pre-incubation, 17 µL of 2 mM PNP-G was added. The absorbances were recorded in a 96-well microplate at 400 nm using an Elisa plate reader (Varioskan Flash, ThermoFischer Scientific, Vantaa, Finland). The average values obtained from the readings were used to determine the IC50 and standard deviation values using a GraphPad Prism software (Version 8, GraphPad Software Inc., San Diego, CA, USA). The average values obtained from the absorbance readings were used to determine the IC50 and standard deviation values in GraphPad prism from nonlinear regression dose–response curves.

human α-amylase = molecular target: T2, human α-amylase (Homo sapiens, UniProt P04746); assay: α-amylase inhibitor screening kit assay; format: biochemical; conditions: mean ± SD, triplicate; tested at 1, 5, 10, 25, 50 µM
T2 construct: purchased Abcam ab283391
T2 sequence (P04746 16-511): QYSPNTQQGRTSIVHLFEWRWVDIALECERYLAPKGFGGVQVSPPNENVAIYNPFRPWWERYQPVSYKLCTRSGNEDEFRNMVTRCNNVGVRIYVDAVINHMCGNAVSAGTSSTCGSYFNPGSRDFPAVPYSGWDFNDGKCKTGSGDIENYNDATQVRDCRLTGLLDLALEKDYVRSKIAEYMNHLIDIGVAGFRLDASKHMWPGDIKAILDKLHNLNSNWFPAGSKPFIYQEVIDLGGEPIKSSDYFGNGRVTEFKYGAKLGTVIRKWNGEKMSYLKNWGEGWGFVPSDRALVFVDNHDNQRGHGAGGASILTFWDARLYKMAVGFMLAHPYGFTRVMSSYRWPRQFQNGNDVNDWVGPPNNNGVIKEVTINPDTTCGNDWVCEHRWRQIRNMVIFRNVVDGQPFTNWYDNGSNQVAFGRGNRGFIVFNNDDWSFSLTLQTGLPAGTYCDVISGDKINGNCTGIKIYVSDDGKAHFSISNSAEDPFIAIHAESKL
Protocol: The α-amylase assay was performed in triplicate, using a 96-well plate following the procedure recommended by the manufacturer as outlined in the α-amylase inhibitor Screening Kit (Catalogue No. ab283391; Abcam). […] The average values obtained from the absorbance readings were used to determine the IC50 and standard deviation values in GraphPad prism from nonlinear regression dose–response curves.

[5] = test system: lung cancer (A549) cell line; assay: MTT cytotoxicity assay, A549; conditions: for Cell viability percentage, A549: Table S3; for IC50: Homo sapiens, A549, read-out: IC50 A549
Protocol: (§1) Cells were cultured in sterile Dulbecco’s Minimal Essential Medium (DMEM, Gibco) supplemented with 10% fetal bovine serum (FBS) and 1% penicillin-streptomycin solution. […] Cell counting was carried out using a handheld automated cell counter (Scapter 3.0™, Merck, Burlington, MA, USA) and seeded (1 × 10^4 cells/well) into a 96-well plate. After 24 h, the cells were treated with different concentrations (1, 5, 10, 25 and 50 µM) of the test compounds and reference standards prepared in DMEM. The MTT solution (20 μL) prepared in PBS (5 mg/mL) was added to all the wells, and the plates were incubated for 4 h, followed by 1 h incubation with 100 µL of dimethyl sulfoxide (DMSO) to dissolve the formazan crystals. Untreated cells and 5% DMSO were included in the experiment as negative controls. All experiments were performed in triplicate. The plates were read at 570 nm at a reference wavelength of 630 nm using an ELISA plate reader (Varioskan Flash, ThermoFisher Scientific, Vantaa, Finland). The percentage of cell viability was calculated using the following formula, Cell viability %=At/Ab×100 where At represents the absorbance value of test compound and Ab the absorbance value of the blank. […] The data were expressed as means ± SD.

[6] = test system: breast cancer (MCF-7) cell line; assay: MTT cytotoxicity assay, MCF-7; conditions: for Cell viability percentage, MCF-7: Table S2; for IC50: Homo sapiens, MCF7, read-out: IC50 MCF-7
[7] = MTT cytotoxicity assay, HEK293-T; conditions: human, HEK293-T cells
Protocol: as §1

[8] = test system: human embryonic kidney (HEK293-T) cell line; assay: MTT cytotoxicity assay, HEK293-T; conditions: Homo sapiens, HEK-293T, read-out: IC50 Hek293-T
Protocol: as §1

T1 sequence (P53341 whole entry): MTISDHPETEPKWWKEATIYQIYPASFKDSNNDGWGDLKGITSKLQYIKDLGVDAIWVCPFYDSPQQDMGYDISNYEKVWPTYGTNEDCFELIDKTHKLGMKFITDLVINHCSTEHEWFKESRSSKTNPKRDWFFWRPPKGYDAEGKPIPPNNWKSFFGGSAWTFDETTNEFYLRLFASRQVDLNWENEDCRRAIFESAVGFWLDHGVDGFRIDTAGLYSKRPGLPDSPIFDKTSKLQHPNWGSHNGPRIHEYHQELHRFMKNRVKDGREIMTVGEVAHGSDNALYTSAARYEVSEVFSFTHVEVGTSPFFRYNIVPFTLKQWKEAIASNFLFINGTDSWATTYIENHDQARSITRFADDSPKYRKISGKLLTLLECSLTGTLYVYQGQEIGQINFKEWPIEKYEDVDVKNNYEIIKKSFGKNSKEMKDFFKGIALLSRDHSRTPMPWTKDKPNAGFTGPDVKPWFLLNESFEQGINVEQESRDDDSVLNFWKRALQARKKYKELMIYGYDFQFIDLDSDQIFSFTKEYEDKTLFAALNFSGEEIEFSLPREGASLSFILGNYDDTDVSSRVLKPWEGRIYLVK

| Compound | IC50 [1] [µM] | IC50 [2] [µM] | IC50 [4] [µM] | IC50 (human α-amylase) [µM] | melting point [°C] | IC50 [5] [µM] | Cell viability percentage, MCF-7 ([6]; Conc. 1 (µM per method)) | Cell viability percentage, MCF-7 ([6]; Conc. 5 (µM per method)) | Cell viability percentage, MCF-7 ([6]; Conc. 10 (µM per method)) | Cell viability percentage, MCF-7 ([6]; Conc. 25 (µM per method)) | Cell viability percentage, MCF-7 ([6]; Conc. 50 (µM per method)) | IC50 [6] [µM] | viability at 1 µM [7] [%] | viability at 5 µM [7] [%] | viability at 10 µM [7] [%] | viability at 25 µM [7] [%] | viability at 50 µM [7] [%] | IC50 [8] [µM] | also measured |
| --- | --- | --- | --- | --- | --- | --- | --- | --- | --- | --- | --- | --- | --- | --- | --- | --- | --- | --- | --- |
| O=C1O[C@H]([C@@H](O)CO)C(O)=C1O [Ascorbic acid, ascorbic acid, reference compound] | 5.02 ± 0.009 | 5.39 ± 0.005 | – | – | – | – | – | – | – | – | – | – | – | – | – | – | – | – | IC50 [3]: 0.999 ± 0.006 µM |
| COc1ccc(C2Nc3ccc(I)cc3C(C)=[N+]2[O-])cc1 (centres unmarked) [Compound 3h] | 0.21 ± 0.057 | 10.05 ± 0.003 | 27.18 ± 0.02 | 55.72 ± 0.02 | 176 to 179 | 18.71 ± 0.16 | 45,0932% | 44,5775% | 43,1304% | 41,2009% | 37,5083% | 22.62 ± 0.12 | 33.3 | 32.6 | 30.8 | 29.7 | 28.1 | 24.26 ± 0.04 | Cell viability percentage, A549 ([5]; Conc. 1 (µM per method)): 87,7714%; Cell viability percentage, A549 ([5]; Conc. 5 (µM per method)): 86,9389%; Cell viability percentage, A549 ([5]; Conc. 10 (µM per method)): 64,8667%; Cell viability percentage, A549 ([5]; Conc. 25 (µM per method)): 56,0806%; Cell viability percentage, A549 ([5]; Conc. 50 (µM per method)): 38,362% |
| CC1=[N+]([O-])C(c2ccc(Cl)cc2)Nc2c(Br)cc(I)cc21 (centres unmarked) [Compound 3o] | 88.45 ± 0.009 | 23.25 ± 0.002 | 7.07 ± 0.04 | 49.18 ± 0.01 | 140 to 142 | 20 ± 0.05 | 46,2908% | 41,6001% | 39,6041% | 38,7891% | 23,0428% | 16.5 ± 0.01 | 45.2 | 44.6 | 44.4 | 44.2 | 37.7 | 58.98 ± 0.17 | – |
